Results from US4469706A, “Selective beta-2 adrenergic antagonists for the treatment of glaucoma” (priority 1982, dated 1984).
Counter-ions that a name gives are not always drawn. Like-named read-outs stand apart in the source and are kept apart here.

What was measured:
[1] = target: T1, rabbit ciliary process adenylate cyclase (Oryctolagus cuniculus, UniProt G1TAV7); assay: Rabbit ciliary process beta-adrenergic sensitive adenylate cyclase activity; format: biochemical; details: for Ki: antagonists, inhibition of isoproterenol-stimulated activity, Table I, read-out: Adenylate Cyclase Ki, Ciliary Process Rabbit (B)
T1 construct: After isolation of the ciliary process, adenylate cyclase activity was measured; from tissue; host or cells: rabbit ciliary process
T1 sequence (G1TAV7 1-437): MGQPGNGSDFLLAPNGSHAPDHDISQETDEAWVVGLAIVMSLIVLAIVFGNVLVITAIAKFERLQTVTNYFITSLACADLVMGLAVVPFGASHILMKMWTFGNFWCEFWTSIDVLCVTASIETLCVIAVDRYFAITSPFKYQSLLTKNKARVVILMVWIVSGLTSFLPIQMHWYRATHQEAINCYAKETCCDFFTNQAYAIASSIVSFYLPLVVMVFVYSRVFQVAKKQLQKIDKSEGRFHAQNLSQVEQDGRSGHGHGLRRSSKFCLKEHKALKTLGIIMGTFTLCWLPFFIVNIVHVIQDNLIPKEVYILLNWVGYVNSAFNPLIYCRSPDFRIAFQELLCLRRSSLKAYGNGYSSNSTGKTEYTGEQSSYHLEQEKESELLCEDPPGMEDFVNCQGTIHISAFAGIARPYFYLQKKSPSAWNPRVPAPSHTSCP

heart adenylate cyclase [2] = assay: Heart adenylate cyclase activation and inhibition; format: biochemical, mammalian; details: antagonists; Table I; ** data from the present inventor, method (a); read-out: Adenylate Cyclase Ki, Heart (G)
[3] = system: cardioacceleratory effect of isoproterenol; details: subcutaneous antagonist 30 minutes before 3 micrograms/kg subcutaneous isoproterenol; rabbits
[4] = system: intraocular pressure in rabbit eyes
[5] = target: beta1 -adrenergic receptor present in mammalian heart; details: Table I; Minneman et al; read-out: Kd for IHYP Binding, Heart (E); cited from earlier work
[6] = system: rabbit ciliary process adenylate cyclase; assay: Rabbit ciliary process beta-adrenergic sensitive adenylate cyclase activity; format: biochemical; details: Table I columns B (rabbit ciliary process) and G
[7] = target: T2, beta-adrenergic sensitive adenylate cyclase present in mammalian choroid plexus (Felis catus, UniProt Q9TST5); assay: Choroid plexus adenylate cyclase activity; format: biochemical
T2 construct: are prepared from the various tissues to be studied (e.g., ciliary process, choroid plexus, heart or lung); from tissue; host or cells: choroid plexus (homogenate or washed particulate)
T2 sequence (Q9TST5 whole entry): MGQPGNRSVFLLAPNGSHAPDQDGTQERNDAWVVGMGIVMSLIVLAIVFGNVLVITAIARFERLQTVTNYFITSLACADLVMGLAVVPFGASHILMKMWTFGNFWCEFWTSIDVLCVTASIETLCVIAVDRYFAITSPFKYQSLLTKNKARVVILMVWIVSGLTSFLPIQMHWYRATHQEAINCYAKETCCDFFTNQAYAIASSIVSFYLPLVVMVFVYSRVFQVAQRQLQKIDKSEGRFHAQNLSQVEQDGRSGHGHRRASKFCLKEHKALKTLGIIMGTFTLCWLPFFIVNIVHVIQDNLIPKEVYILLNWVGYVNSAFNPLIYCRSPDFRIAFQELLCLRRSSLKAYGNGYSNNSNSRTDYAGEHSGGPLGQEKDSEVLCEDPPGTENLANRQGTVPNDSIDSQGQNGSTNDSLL

[8] = system: ciliary body adenylate cyclase; assay: Ciliary body adenylate cyclase stimulation; format: biochemical
Text: (§1) The discovery that the ciliary process of the mammalian eye contains β2 -adrenergic receptors is based on the technique of measuring adenylate cyclase, an enzyme which synthesizes cyclic AMP from ATP. It has been established that receptor binding of beta adrenergic agonists is associated with a concomitant activation of adenylate cyclase. (Robison, G. A., et al, Cyclic AMP, Academic Press, New York, 1971, and Wolfe, B. B., et al, Annual Reviews of Pharmacology and Toxicology, 17:575-604 (1977)). […] Beta adrenergic sensitive adenylate cyclase activity was thus identified and characterized in the ocular tissues of several mammalian species such as rabbits, cats, dogs, monkeys and humans. After isolation of the ciliary process, adenylate cyclase activity was measured, and its activation by agonists or inhibition by antagonists was measured. […].
(§2) For ciliary body, maximal stimulation was 15% of the stimulation seen in the ciliary process, and for iris, maximal stimulation was 22% for that seen in the ciliary process. […];

iris adenylate cyclase = assay: Iris adenylate cyclase stimulation; format: biochemical
Text: as §1, §2

[9] = system: intraocular pressure above normal; assay: Alpha chymotrypsin-induced glaucoma in rabbits; format: in vivo, rabbit; details: compared with timolol
Text: This effect is also observed under conditions of elevated pressure.

heart adenylate cyclase [10] = target: T3, heart adenylate cyclase (Rattus norvegicus, UniProt P18090); details: agonists; Table I; Minneman et al; NE = no effect as agonist; cited from earlier work
T3 construct: are prepared from the various tissues to be studied (e.g., ciliary process, choroid plexus, heart or lung); from tissue; host or cells: heart (homogenate or washed particulate)
T3 sequence (P18090 whole entry): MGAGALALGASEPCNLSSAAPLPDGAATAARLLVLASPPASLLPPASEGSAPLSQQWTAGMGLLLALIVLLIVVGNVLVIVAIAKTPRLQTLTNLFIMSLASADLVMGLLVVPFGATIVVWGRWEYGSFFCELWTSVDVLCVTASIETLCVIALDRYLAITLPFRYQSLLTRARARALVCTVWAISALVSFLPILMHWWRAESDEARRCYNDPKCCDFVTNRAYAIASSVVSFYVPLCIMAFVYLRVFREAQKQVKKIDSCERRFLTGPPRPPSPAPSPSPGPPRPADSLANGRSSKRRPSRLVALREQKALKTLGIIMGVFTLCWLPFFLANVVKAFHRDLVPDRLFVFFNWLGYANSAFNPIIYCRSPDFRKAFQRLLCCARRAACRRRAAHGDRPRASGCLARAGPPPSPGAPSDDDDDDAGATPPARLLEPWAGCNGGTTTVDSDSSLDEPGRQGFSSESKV

[11] = target: T4, human ciliary process beta-adrenergic receptors (Homo sapiens, UniProt P07550); assay: biochemical
T4 construct: ciliary process from human donor eyes was assayed biochemically; from tissue; host or cells: ciliary process from human donor eyes
T4 sequence (P07550 whole entry): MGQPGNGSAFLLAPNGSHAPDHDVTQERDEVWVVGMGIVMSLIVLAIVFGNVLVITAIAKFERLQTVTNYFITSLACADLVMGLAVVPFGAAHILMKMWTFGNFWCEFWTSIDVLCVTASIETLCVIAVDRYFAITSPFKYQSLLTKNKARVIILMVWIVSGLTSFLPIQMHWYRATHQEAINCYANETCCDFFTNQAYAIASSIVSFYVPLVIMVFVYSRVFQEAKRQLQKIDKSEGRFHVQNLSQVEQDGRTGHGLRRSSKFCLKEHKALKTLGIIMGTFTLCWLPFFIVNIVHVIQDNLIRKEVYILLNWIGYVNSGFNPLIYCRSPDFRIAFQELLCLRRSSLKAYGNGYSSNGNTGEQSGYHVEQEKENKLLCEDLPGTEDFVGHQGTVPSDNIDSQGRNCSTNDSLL

[12] = antagonists, Table I, read-out: Adenylate Cyclase Ki, Choroid Plexus (C)
[13] = 0.5% topical to ipsilateral eye
[14] = 0.5% topical, two 50 microliter doses, 2 and 3 hours after application

Compound: Cc1ccc(OCC(O)C(C)NC(C)C)c2c1CCC2 (stereo not drawn) [ICI 118,551]
- Ki [1]: 0.003 µM
- Ki (heart adenylate cyclase [2]): 1.76 µM
- IC50 for blocking isoproterenol-induced increase in heart rate [3]: 140 micrograms/kg
- Ocular irritative effects ([4]; rabbit, in vivo): little ocular irritative effects
- Decrease in intraocular pressure compared with timolol ([4]; topical 50 μl of a 1% solution, 6 hours, N=12 double blind crossover): both a greater decrease as well as a more prolonged decrease in intraocular pressure than did timolol

Compound: COc1ccc(OC)c(C(O)C(C)NC(C)(C)C)c1 (stereo not drawn) [Butoxamine]
- Kd [5]: 7.03 µM
- Ki [1]: 1.53 µM
- β2/β1 potency ratio (Ki heart/Ki ciliary process) [6]: 9.8
- Ki (heart adenylate cyclase [2]): 15 µM
- Ki [7, 12]: 1.5 µM

Compound: CC(C)NCC(O)COc1ccc(CC(N)=O)cc1 (stereo not drawn) [Atenolol, atenolol]
- Ki [1]: 21 µM
- Ki (heart adenylate cyclase [2]): 2.7 µM
- Ki [7, 12]: 5.8 µM

Compound: CC(C)NCC(O)c1ccc(O)c(O)c1 (stereo not drawn) [Isoproterenol]
- Maximal stimulation, of the stimulation seen in the ciliary process [8]: 15%
- EC50 [7]: 0.14 µM
- Maximal stimulation, of that seen in the ciliary process (iris adenylate cyclase): 22%

Compound: CC(C)(C)NC[C@H](O)COc1nsnc1N1CCOCC1 [Timolol, timolol]
- Ki [1]: 0.0064 µM
- Ki (heart adenylate cyclase [2]): 0.02 µM
- IC50 for blocking isoproterenol-induced increase in heart rate [3]: 2.2 micrograms/kg
- Change of IOP in the contralateral eye [4, 13]: significant decrease in IOP in the contralateral eye
- Change of IOP in ipsilateral eyes compared to predrug readings [4, 14]: significant decrease in IOP in ipsilateral eyes
- Change of IOP in ipsilateral eyes compared to predrug readings ([4]; 0.5% topical, 1 hour after application): also caused a significant decrease at 1 hour
- Pupillary diameter and overt ocular toxicity ([4]; rabbit, in vivo): no significant changes in pupillary diameter nor overt ocular toxicity

Compound: CC(=O)Nc1ccc(OCC(O)CNC(C)C)cc1 (stereo not drawn) [Practolol, practolol]
- Kd [5]: 1.1 µM
- Ki [1]: 39 µM
- Ki (heart adenylate cyclase [2]): 5.5 µM
- Ki [7, 12]: 8.9 µM

Compound: CC(C)(C)NCC(O)CON=C1c2ccccc2-c2ccccc21 (stereo not drawn) [IPS 339, (t-butyl-amino 3-ol-2-propyl) oximino-9 fluorene, hydrochloride]
- Kd [5]: 0.01 µM
- Ki (heart adenylate cyclase [2]): 1.12 µM
- Ki [7]: 0.0019 µM
- Intraocular pressure above normal [9]: decreased significantly
- Change of IOP in the contralateral eye [4, 13]: significant decrease in IOP in the contralateral eye
- Magnitude of contralateral IOP effect compared with timolol [4, 13]: somewhat less for IPS 339 than for timolol
- Change of IOP in ipsilateral eyes compared to predrug readings [4, 14]: significant decrease in IOP in ipsilateral eyes
- Extent of IOP decrease compared with timolol ([4]; 0.5% topical, at 3 hours): significantly more than that caused by timolol
- Pupillary diameter and overt ocular toxicity ([4]; rabbit, in vivo): no significant changes in pupillary diameter nor overt ocular toxicity

Compound: CNC[C@H](O)c1ccc(O)c(O)c1 [Epinephrine]
- EC50 [1]: 2.4 µM
- Adenylate Cyclase Ka, Heart (G) (heart adenylate cyclase [10]): 1.5 µM
- EC50 [7]: 1.55 µM

Compound: Cc1ccc(C(O)C(C)NC(C)C)cc1 (stereo not drawn) [H35/25, 1(4'-methylphenyl)-2-isopropyl amino propanol]
- Ki [1]: 0.7 µM
- Ki ([11]; antagonists, inhibition of isoproterenol-stimulated activity, Table I column A, read-out: Adenylate Cyclase Ki, Ciliary Process Human (A)): 0.74 µM
- beta2/beta1 Potency Ratio ([11]; human ciliary process, Table 3): 8.8
- Ki ([11]; human ciliary process, Table 3, read-out: Ki for Isoproterenol-Stimulated Adenylate Cyclase): 0.74 µM
- Ki ([11]; inhibition of isoproterenol stimulation of human ciliary process adenylate cyclase, read-out: calculated inhibitory constant (Ki)): 0.74 µM
- Ki [7]: 0.14 µM

Compound: NC[C@H](O)c1ccc(O)c(O)c1 [Norepinephrine]
- Kd [5]: 0.82 µM
- EC50 [1]: 29 µM
- EC50 ([7]; agonists, Table I, read-out: Adenylate Cyclase Ka, Choroid Plexus (C)): 25 µM
